Laboratory results taken from ChEMBL document CHEMBL1129860, “Studies on penam sulfones III. Synthesis and -lactamase inhibitory activity of sodium (6R)-6-(-hydroxybenzyl)-2-methoxyiminomethyl-2-methylpenam-3-carboxylate 1,1-dioxide and sodium 2-acyl-2-methylpenam-3-carboxylate 1,1-dioxide” (1997).
Values after ≈ are worked out from the molar mass of the structure shown. Values belong to the compound of their own block, whether it stands above or below them.

Assays:
[1] = system: Morganella morganii; experiment: In vitro minimal inhibitory concentration of compound against Morganella morganii 36014; format: functional
[2] = system: Enterobacter cloacae; experiment: In vitro minimal inhibitory concentration of compound against Enterobacter cloacae 40011; format: functional
[3] = system: Staphylococcus aureus; experiment: In vitro minimal inhibitory concentration of compound against Staphylococcus aureus 80K; format: functional
[4] = system: Klebsiella aerogenes; experiment: In vitro minimal inhibitory concentration of compound against Enterobacter aerogenes 41004; format: functional
[5] = system: Serratia marcescens; experiment: In vitro minimal inhibitory concentration of compound against Serratia marcescens 200 L; format: functional
[6] = system: Proteus vulgaris; experiment: In vitro minimal inhibitory concentration of compound against Proteus vulgaris CT 106; format: functional
[7] = system: Enterobacter cloacae; experiment: In vitro minimal inhibitory concentration of compound against Enterobacter cloacae 40015; format: functional
[8] = system: Escherichia coli; experiment: In vitro minimal inhibitory concentration of compound against Escherichia coli SHV 1; format: functional
[9] = system: Escherichia coli; experiment: In vitro minimal inhibitory concentration of compound against Escherichia coli OXA 3; format: functional
[10] = system: Escherichia coli; experiment: In vitro minimal inhibitory concentration of compound against Escherichia coli OXA 1; format: functional
[11] = system: Klebsiella aerogenes; experiment: In vitro minimal inhibitory concentration of compound against Enterobacter aerogenes 41006; format: functional
[12] = system: Escherichia coli; experiment: In vitro minimal inhibitory concentration of compound against Escherichia coli TEM 3; format: functional
[13] = system: Staphylococcus aureus; experiment: In vitro minimal inhibitory concentration of compound against Staphylococcus aureus 54K; format: functional
[14] = system: Pseudomonas aeruginosa; experiment: In vitro minimal inhibitory concentration of compound against Pseudomonas aeruginosa 46220 (DR-2); format: functional
[15] = system: Klebsiella pneumoniae; experiment: In vitro minimal inhibitory concentration of compound against Klebsiella pneumoniae CTX 1; format: functional
[16] = system: Escherichia coli; experiment: In vitro minimal inhibitory concentration of compound against Escherichia coli SHV 5; format: functional
[17] = system: Klebsiella aerogenes; experiment: In vitro minimal inhibitory concentration of compound against Enterobacter aerogenes 41003; format: functional
[18] = system: Citrobacter freundii; experiment: In vitro minimal inhibitory concentration of compound against Citrobacter freundii 2046E; format: functional
[19] = system: Citrobacter freundii; experiment: In vitro minimal inhibitory concentration of compound against Citrobacter freundii 44032; format: functional
[20] = system: Enterobacter cloacae; experiment: In vitro minimal inhibitory concentration of compound against Enterobacter cloacae P99; format: functional
[21] = system: Escherichia coli; experiment: In vitro minimal inhibitory concentration of compound against Escherichia coli TEM 7; format: functional
[22] = system: Escherichia coli; experiment: In vitro minimal inhibitory concentration (MIC) of compound in combination with piperacillin (PIPC) showed synergic activity against Escherichia coli OXA 3; format: functional
[23] = system: Enterobacter cloacae; experiment: In vitro minimal inhibitory concentration (MIC) of compound in combination with piperacillin (PIPC) showed synergic activity against Enterobacter cloacae P99; format: functional
[24] = system: Escherichia coli; experiment: In vitro minimal inhibitory concentration (MIC) of compound in combination with piperacillin (PIPC) showed synergic activity against Escherichia coli OXA 1; format: functional
[25] = system: Escherichia coli; experiment: In vitro minimal inhibitory concentration (MIC) of compound in combination with piperacillin (PIPC) showed synergic activity against Escherichia coli TEM 7; format: functional
[26] = system: Escherichia coli; experiment: In vitro minimal inhibitory concentration (MIC) of compound in combination with piperacillin (PIPC) showed synergic activity against Escherichia coli TEM 3; format: functional
[27] = system: Escherichia coli; experiment: In vitro minimal inhibitory concentration (MIC) of compound in combination with piperacillin (PIPC) showed synergic activity against Escherichia coli SHV 1; format: functional
[28] = system: Klebsiella aerogenes; experiment: In vitro minimal inhibitory concentration (MIC) of compound in combination with piperacillin (PIPC) showed synergic activity against Enterobacter aerogenes 41004; format: functional
[29] = system: Serratia marcescens; experiment: In vitro minimal inhibitory concentration (MIC) of compound in combination with piperacillin (PIPC) showed synergic activity against Serratia marcescens 200 L; format: functional
[30] = system: Citrobacter freundii; experiment: In vitro minimal inhibitory concentration (MIC) of compound in combination with piperacillin (PIPC) showed synergic activity against Citrobacter freundii 44032; format: functional
[31] = system: Klebsiella aerogenes; experiment: In vitro minimal inhibitory concentration (MIC) of compound in combination with piperacillin (PIPC) showed synergic activity against Enterobacter aerogenes 41003; format: functional
[32] = system: Pseudomonas aeruginosa; experiment: In vitro minimal inhibitory concentration (MIC) of compound in combination with piperacillin (PIPC) showed synergic activity against Pseudomonas aeruginosa 46220 (DR-2); format: functional
[33] = system: Enterobacter cloacae; experiment: In vitro minimal inhibitory concentration (MIC) of compound in combination with piperacillin (PIPC) showed synergic activity against Enterobacter cloacae 40011; format: functional
[34] = system: Escherichia coli; experiment: In vitro minimal inhibitory concentration (MIC) of compound in combination with piperacillin (PIPC) showed synergic activity against Escherichia coli SHV 5; format: functional
[35] = system: Enterobacter cloacae; experiment: In vitro minimal inhibitory concentration (MIC) of compound in combination with piperacillin (PIPC) showed synergic activity against Enterobacter cloacae 40015; format: functional
[36] = system: Klebsiella aerogenes; experiment: In vitro minimal inhibitory concentration (MIC) of compound in combination with piperacillin (PIPC) showed synergic activity against Enterobacter aerogenes 41006; format: functional
[37] = system: Proteus vulgaris; experiment: In vitro minimal inhibitory concentration (MIC) of compound in combination with piperacillin (PIPC) showed synergic activity against Proteus vulgaris CT 106; format: functional
[38] = system: Staphylococcus aureus; experiment: In vitro minimal inhibitory concentration (MIC) of compound in combination with piperacillin (PIPC) showed synergic activity against Staphylococcus aureus 54K; format: functional
[39] = system: Klebsiella pneumoniae; experiment: In vitro minimal inhibitory concentration (MIC) of compound in combination with piperacillin (PIPC) showed synergic activity against Klebsiella pneumoniae CTX 1; format: functional
[40] = system: Citrobacter freundii; experiment: In vitro minimal inhibitory concentration (MIC) of compound in combination with piperacillin (PIPC) showed synergic activity against Citrobacter freundii 2046E; format: functional
[41] = system: Morganella morganii; experiment: In vitro minimal inhibitory concentration (MIC) of compound in combination with piperacillin (PIPC) showed synergic activity against Morganella morganii 36014; format: functional
[42] = system: Staphylococcus aureus; experiment: In vitro minimal inhibitory concentration (MIC) of compound in combination with piperacillin (PIPC) showed synergic activity against Staphylococcus aureus 80K; format: functional
[43] = system: Pseudomonas aeruginosa; experiment: microbe, parasite or virus in culture
[44] = system: Klebsiella aerogenes; experiment: In vitro minimal inhibitory concentration (MIC) of compound in combination with Ceftazidime (CAZ) showed synergic activity against Enterobacter aerogenes S-97; format: functional
[45] = system: Morganella morganii; experiment: In vitro minimal inhibitory concentration (MIC) of compound in combination with Ceftazidime (CAZ) showed synergic activity against Morganella morganii 36014; format: functional
[46] = system: Enterobacter cloacae; experiment: In vitro minimal inhibitory concentration (MIC) of compound in combination with Ceftazidime (CAZ) showed synergic activity against Enterobacter cloacae S-11; format: functional
[47] = system: Enterobacter cloacae; experiment: In vitro minimal inhibitory concentration (MIC) of compound in combination with Ceftazidime (CAZ) showed synergic activity against Enterobacter cloacae S-65; format: functional
[48] = system: Morganella morganii; experiment: In vitro minimal inhibitory concentration (MIC) of compound in combination with Ceftazidime (CAZ) showed synergic activity against Morganella morganii 36030; format: functional
[49] = system: Pseudomonas aeruginosa; experiment: microbe, parasite or virus in culture; remark: listed apart in the source
[50] = system: Klebsiella pneumoniae; experiment: In vitro minimal inhibitory concentration (MIC) of compound in combination with Ceftazidime (CAZ) showed synergic activity against Klebsiella pneumoniae CTX 1; format: functional
[51] = system: Enterobacter cloacae; experiment: In vitro minimal inhibitory concentration (MIC) of compound in combination with Ceftazidime (CAZ) showed synergic activity against Enterobacter cloacae P99; format: functional
[52] = system: Escherichia coli; experiment: In vitro minimal inhibitory concentration (MIC) of compound in combination with Ceftazidime (CAZ) showed synergic activity against Escherichia coli TEM 7; format: functional
[53] = system: Escherichia coli; experiment: In vitro minimal inhibitory concentration (MIC) of compound in combination with Ceftazidime (CAZ) showed synergic activity against Escherichia coli TEM 3; format: functional
[54] = system: Klebsiella aerogenes; experiment: In vitro minimal inhibitory concentration (MIC) of compound in combination with Ceftazidime (CAZ) showed synergic activity against Enterobacter aerogenes 41003; format: functional
[55] = system: Citrobacter freundii; experiment: In vitro minimal inhibitory concentration (MIC) of compound in combination with Ceftazidime (CAZ) showed synergic activity against Citrobacter freundii 44032; format: functional
[56] = system: Enterobacter cloacae; experiment: In vitro minimal inhibitory concentration (MIC) of compound in combination with Ceftazidime (CAZ) showed synergic activity against Enterobacter cloacae E40002; format: functional
[57] = system: Proteus vulgaris; experiment: In vitro minimal inhibitory concentration (MIC) of compound in combination with Ceftazidime (CAZ) showed synergic activity against Proteus vulgaris CT 106; format: functional
[58] = system: Enterobacter cloacae; experiment: In vitro minimal inhibitory concentration (MIC) of compound in combination with Ceftazidime (CAZ) showed synergic activity against Enterobacter cloacae 40011; format: functional
[59] = system: Citrobacter freundii; experiment: In vitro minimal inhibitory concentration (MIC) of compound in combination with Ceftazidime (CAZ) showed synergic activity against Citrobacter freundii CT 76; format: functional
[60] = system: Klebsiella aerogenes; experiment: In vitro minimal inhibitory concentration (MIC) of compound in combination with Ceftazidime (CAZ) showed synergic activity against Enterobacter aerogenes 41006; format: functional
[61] = system: Pseudomonas aeruginosa; experiment: In vitro minimal inhibitory concentration (MIC) of compound in combination with Ceftazidime (CAZ) showed synergic activity against Pseudomonas aeruginosa 46220 (DR-2); format: functional
[62] = system: Klebsiella aerogenes; experiment: In vitro minimal inhibitory concentration (MIC) of compound in combination with Ceftazidime (CAZ) showed synergic activity against Enterobacter aerogenes 41004; format: functional

SMILES: CCN1CCN(C(=O)N[C@@H](C(=O)N[C@@H]2C(=O)N3[C@@H]2SC(C)(C)[C@@H]3C(=O)O)c2ccccc2)C(=O)C1=O [PIPERACILLIN]
MIC [1]: 50 µg/mL (≈ 96.6 µM) | MIC [2]: 50 µg/mL (≈ 96.6 µM) | MIC [3]: 50 µg/mL (≈ 96.6 µM) | MIC [4]: 12.5 µg/mL (≈ 24.2 µM) | MIC [5]: 200 µg/mL (≈ 386 µM) | MIC [6]: 200 µg/mL (≈ 386 µM) | MIC [7]: 100 µg/mL (≈ 193 µM) | MIC [8]: > 400 µg/mL | MIC [9]: 3.13 µg/mL (≈ 6.05 µM) | MIC [10]: 25 µg/mL (≈ 48.3 µM) | MIC [11]: 100 µg/mL (≈ 193 µM) | MIC [12]: 200 µg/mL (≈ 386 µM) | MIC [13]: 200 µg/mL (≈ 386 µM) | MIC [14]: 100 µg/mL (≈ 193 µM) | MIC [15]: > 400 µg/mL | MIC [16]: 200 µg/mL (≈ 386 µM) | MIC [17]: 12.5 µg/mL (≈ 24.2 µM) | MIC [18]: > 400 µg/mL | MIC [19]: 200 µg/mL (≈ 386 µM) | MIC [20]: 100 µg/mL (≈ 193 µM) | MIC [21]: > 400 µg/mL

MIC [22]: 1.56 µg/mL | MIC [23]: 12.5 µg/mL | MIC [24]: 1.56 µg/mL | MIC [25]: 1.56 µg/mL | MIC [26]: 3.13 µg/mL | MIC [27]: 3.13 µg/mL | MIC [28]: 6.25 µg/mL | MIC [29]: 3.13 µg/mL | MIC [30]: 12.5 µg/mL | MIC [31]: 3.13 µg/mL | MIC [32]: 6.25 µg/mL | MIC [33]: 6.25 µg/mL | MIC [34]: 1.56 µg/mL | MIC [35]: 25 µg/mL | MIC [36]: 12.5 µg/mL | MIC [37]: 25 µg/mL | MIC [38]: 6.26 µg/mL | MIC [39]: 12.5 µg/mL | MIC [40]: 1.56 µg/mL | MIC [41]: 0.39 µg/mL | MIC [42]: 3.13 µg/mL
SMILES: CC(=O)[C@@]1(C)[C@H](C(=O)[O-])N2C(=O)CC2S1(=O)=O.CCN1CCN(C(=O)NC(C(=O)N[C@@H]2C(=O)N3[C@@H]2SC(C)(C)[C@@H]3C(=O)O)c2ccccc2)C(=O)C1=O.[Na+] (stereo partly drawn)

MIC [43]: 32 µg/mL | MIC [44]: 4 µg/mL | MIC ([45]; Morganella morganii, read-out: MIC): 2 µg/mL | MIC [46]: < 0.25 µg/mL | MIC [47]: < 0.25 µg/mL | MIC [48]: 1 µg/mL | MIC [49]: 16 µg/mL
SMILES: CC(C)(O/N=C(\C(=O)NC1C(=O)N2C(C(=O)[O-])=C(C[n+]3ccccc3)CSC12)c1csc(N)n1)C(=O)O.CO/N=C/[C@@]1(C)[C@H](C(=O)[O-])N2C(=O)[C@@H]([C@@H](O)c3ccccc3)[C@H]2S1(=O)=O.[Na+] (stereo not drawn)

MIC [50]: 1.56 µg/mL | MIC [51]: 6.25 µg/mL | MIC [52]: 0.39 µg/mL | MIC [53]: 0.39 µg/mL | MIC [45]: ≤ 0.2 µg/mL | MIC [54]: 1.56 µg/mL | MIC [55]: 12.5 µg/mL | MIC [56]: 12.5 µg/mL | MIC [57]: 1.56 µg/mL | MIC [58]: 1.56 µg/mL | MIC [59]: 12.5 µg/mL | MIC [60]: 12.5 µg/mL | MIC [61]: 6.25 µg/mL | MIC [62]: 1.56 µg/mL
SMILES: CC(=O)[C@@]1(C)[C@H](C(=O)[O-])N2C(=O)CC2S1(=O)=O.CC(C)(O/N=C(\C(=O)NC1C(=O)N2C(C(=O)[O-])=C(C[n+]3ccccc3)CSC12)c1csc(N)n1)C(=O)O.[Na+] (stereo not drawn)
